Test results from ChEMBL document CHEMBL1201862, “PubChem BioAssay data set” (2004).
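Compound exposure: 48 hours, 5 concentrations, 96-well plates. GI50 = concentration required for 50% inhibition of growth.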 Activity calls are given as the source filed them. No stated cut-off is given here; in the data, active = GI50 up to about 1.1 µM and inactive = higher.

Assays:
Assay in all cases: NCI anticancer screen, dose series, 48 h
[1] = tested on: Malme-3M
[2] = tested on: HL-60
[3] = tested on: NCI-H23
[4] = tested on: SF-268
[5] = tested on: HOP-62
[6] = tested on: HCC 2998
[7] = tested on: OVCAR-8
[8] = tested on: SNB-75
[9] = tested on: CCRF-CEM
[10] = tested on: A549
[11] = tested on: Hs-578T
[12] = tested on: HOP-92
[13] = tested on: SK-MEL-2
[14] = tested on: BT-549
[15] = tested on: HT-29
[16] = tested on: MDA-N
[17] = tested on: MCF7
[18] = tested on: SF-539
[19] = tested on: UO-31
[20] = tested on: NCI-H226
[21] = tested on: IGROV-1
[22] = tested on: MDA-MB-231
[23] = tested on: COLO 205
[24] = tested on: T47D
[25] = tested on: RPMI-8226
[26] = tested on: HCT-15
[27] = tested on: SF-295
[28] = tested on: NCI/ADR-RES
[29] = tested on: SK-MEL-5
[30] = tested on: ACHN
[31] = tested on: UACC-62
[32] = tested on: NCI-H460
[33] = tested on: 786-0
[34] = tested on: SW-620
[35] = tested on: UACC-257
[36] = tested on: LOX IMVI
[37] = tested on: PC-3
[38] = tested on: SK-MEL-28
[39] = tested on: OVCAR-3
[40] = tested on: M14
[41] = tested on: OVCAR-4
[42] = tested on: OVCAR-5
[43] = tested on: SNB-19
[44] = tested on: A498
[45] = tested on: K562
[46] = tested on: HCT-116
[47] = tested on: U-251
[48] = tested on: RXF 393
[49] = tested on: KM12
[50] = tested on: EKVX
[51] = tested on: SN12C
[52] = tested on: CAKI-1
[53] = tested on: MDA-MB-435
[54] = tested on: DU-145
[55] = tested on: MOLT-4
[56] = tested on: SK-OV-3
[57] = tested on: TK-10
[58] = tested on: SR

Measured: GI50

N[C@@H](Cc1ccccc1)C(=O)N1CCC[C@@H]1P(=O)(Oc1ccccc1)Oc1ccccc1
inactive: [1] > 100 µM | [2] > 100 µM | [3] > 100 µM | [4] > 100 µM | [5] > 100 µM | [6] 39.3 µM | [7] > 100 µM | [8] > 100 µM | [9] > 100 µM | [10] > 100 µM | [11] > 100 µM | [12] > 100 µM | [13] > 100 µM | [14] > 100 µM | [15] 86.3 µM | [16] > 100 µM | [17] > 100 µM | [18] > 100 µM | [19] > 100 µM | [20] > 100 µM | [21] > 100 µM | [22] > 100 µM | [23] > 100 µM | [24] > 100 µM | [25] 96.4 µM | [27] > 100 µM | [28] > 100 µM | [29] 78.2 µM | [30] > 100 µM | [31] > 100 µM | [32] > 100 µM | [33] > 100 µM | [34] > 100 µM | [35] > 100 µM | [36] > 100 µM | [37] 33.6 µM | [38] > 100 µM | [39] > 100 µM | [40] > 100 µM | [41] > 100 µM | [42] > 100 µM | [43] > 100 µM | [44] > 100 µM | [45] 77.8 µM | [46] > 100 µM | [47] > 100 µM | [48] > 100 µM | [49] > 100 µM | [50] > 100 µM | [51] > 100 µM | [52] > 100 µM | [53] > 100 µM | [54] > 100 µM | [55] 60.3 µM | [56] > 100 µM | [57] > 100 µM
> 100 µM: [26]

Cc1cc(C)c(S(=O)(=O)N(CCCN)OCCCN)c(C)c1
active: [42] 0.881 µM
inactive: [1] > 100 µM | [3] > 100 µM | [4] > 100 µM | [5] 6.52 µM | [6] > 100 µM | [7] > 100 µM | [8] > 100 µM | [9] > 100 µM | [10] > 100 µM | [11] > 100 µM | [12] 64.1 µM | [13] > 100 µM | [14] > 100 µM | [15] > 100 µM | [16] > 100 µM | [17] > 100 µM | [18] > 100 µM | [19] > 100 µM | [20] > 100 µM | [21] > 100 µM | [22] > 100 µM | [23] > 100 µM | [24] > 100 µM | [25] > 100 µM | [27] > 100 µM | [28] > 100 µM | [29] > 100 µM | [30] > 100 µM | [31] > 100 µM | [32] > 100 µM | [34] > 100 µM | [35] > 100 µM | [36] > 100 µM | [37] > 100 µM | [38] > 100 µM | [39] 56 µM | [40] 31.4 µM | [41] > 100 µM | [43] > 100 µM | [45] > 100 µM | [46] > 100 µM | [47] > 100 µM | [48] > 100 µM | [49] > 100 µM | [50] > 100 µM | [51] > 100 µM | [52] > 100 µM | [53] > 100 µM | [54] > 100 µM | [55] > 100 µM | [56] > 100 µM | [58] > 100 µM | [57] > 100 µM
